# Results reported in ChEMBL document CHEMBL4304763 (Eur J Med Chem, 2019).
# Activity calls are given as the source filed them. No cut-off for these calls is given here.
# What was measured:
# COLO 205 [1] = assay: cells; conditions: Homo sapiens
# A549 = assay: cells; conditions: Homo sapiens
# ZR-75-1 = assay: cells; conditions: Homo sapiens
# MCF7 [2] = assay: cells; conditions: Homo sapiens
# T47D = assay: cells; conditions: Homo sapiens
# MCF7 [3] = assay type: functional, Homo sapiens; conditions: at 50 mg/kg
# in vivo [4] = conditions: BALB/c, mouse, iv, 3 mg/kg
# in vitro [5] = conditions: dog, microsomes
# NCI-H1975 = assay: cells; conditions: Homo sapiens
# in vitro [6] = conditions: mouse, microsomes
# in vivo [7] = conditions: BALB/c, mouse, po, 10 mg/kg
# CFPAC-1 = assay: cells; conditions: Homo sapiens
# in vivo [8] = conditions: BALB/c, mouse, iv, 3 mg/kg; remark: listed apart in the source
# in vivo [9] = conditions: BALB/c, mouse, iv, 3 mg/kg; remark: listed apart in the source
# SNU-5 = assay: cells; conditions: Homo sapiens
# in vivo [10] = conditions: BALB/c, mouse, iv, 3 mg/kg; remark: listed apart in the source
# in vitro [11] = conditions: rhesus monkey, microsomes
# COLO 205 [12] = conditions: Homo sapiens
# U-87 MG = assay: cells; conditions: Homo sapiens
# in vitro [13] = conditions: mouse, microsomes; remark: listed apart in the source
# in vivo [14] = conditions: BALB/c, mouse, po, 10 mg/kg; remark: listed apart in the source
# in vivo [15] = conditions: BALB/c, mouse, po, 10 mg/kg; remark: listed apart in the source
# in vitro [16] = conditions: rat, microsomes
# HepG2 = assay: cells; conditions: Homo sapiens
# U-251 = assay: cells; conditions: Homo sapiens
# in vitro [17] = conditions: rat, microsomes; remark: listed apart in the source
# LNCaP = assay: cells; conditions: Homo sapiens
# in vitro [18] = conditions: dog, microsomes; remark: listed apart in the source
# BXPC-3 = assay: cells; conditions: Homo sapiens
# in vivo [19] = conditions: BALB/c, mouse, iv, 3 mg/kg; remark: listed apart in the source
# in vitro [20] = conditions: human, microsomes
# PC-3 = assay: cells; conditions: Homo sapiens
# in vitro [21] = conditions: rhesus monkey, microsomes; remark: listed apart in the source
# in vivo [22] = conditions: BALB/c, mouse, po, 10 mg/kg; remark: listed apart in the source
# in vitro [23] = conditions: human, microsomes; remark: listed apart in the source
# NCI-H1993 = assay: cells; conditions: Homo sapiens
# NCI-N87 = assay: cells; conditions: Homo sapiens
# PANC-1 = assay: cells; conditions: Homo sapiens
smiles,measurement,setting,value
CCOP(=O)(OCC)N(C)CCN1CCc2nc(Nc3ncc(F)c(-c4cc(F)c5nc(C)n(C(C)C)c5c4)n3)ccc2C1,IC50,COLO 205 [1],911 nM
same,IC50,A549,1060 nM
same,IC50,ZR-75-1,453 nM
same,IC50,MCF7 [2],150 nM
C/C(=N\O)N(C)CCN1CCc2nc(Nc3ncc(F)c(-c4cc(F)c5nc(C)n(C(C)C)c5c4)n3)ccc2C1,IC50,T47D,62.5 nM
same,IC50,COLO 205 [1],125 nM
same,IC50,A549,423 nM
same,IC50,ZR-75-1,121 nM
same,IC50,MCF7 [2],193 nM
CCN1CCN(Cc2ccc(Nc3ncc(F)c(-c4cc(F)c5nc(C)n(C(C)C)c5c4)n3)nc2)CC1 [ABEMACICLIB],T/C,MCF7 [3],37%
same,AUC(0-t) at 24 h,in vivo [4],830 ng·h/mL
same,half-life at 1 h,in vitro [5],17.8 min
same,IC50,NCI-H1975,774 nM
same,half-life at 1 h,in vitro [6],8.25 min
same,Cmax at 24 h,in vivo [7],577 ng/mL
same,IC50,CFPAC-1,371 nM
same,Cmax at 24 h,in vivo [8],765 ng/mL
same,Vd at 24 h,in vivo [9],8.24 L/kg
same,IC50,SNU-5,523 nM
same,clearance at 24 h,in vivo [10],60 mL/min/kg
same,microsomal CLint at 1 h,in vitro [11],350 µL/min/mg
same,TGI,COLO 205 [12],Active
same,IC50,U-87 MG,706 nM
same,microsomal CLint at 1 h,in vitro [13],168 µL/min/mg
same,AUC(0-t) at 24 h,in vivo [14],2170 ng·h/mL
same,bioavailability at 24 h,in vivo [15],78.6%
same,half-life at 1 h,in vitro [16],231 min
same,IC50,HepG2,216 nM
same,IC50,U-251,294 nM
same,microsomal CLint at 1 h,in vitro [17],6 µL/min/mg
same,IC50,LNCaP,84 nM
same,microsomal CLint at 1 h,in vitro [18],78 µL/min/mg
same,IC50,BXPC-3,127 nM
same,half-life at 24 h,in vivo [19],325 min
same,microsomal CLint at 1 h,in vitro [20],170 µL/min/mg
same,IC50,PC-3,9210 nM
same,half-life at 1 h,in vitro [21],3.96 min
same,half-life at 24 h,in vivo [22],283 min
same,half-life at 1 h,in vitro [23],8.15 min
same,IC50,NCI-H1993,1160 nM
same,IC50,NCI-N87,519 nM
same,IC50,PANC-1,701 nM
Cc1nc2c(F)cc(-c3nc(Nc4ccc5c(n4)CCN(CCN(C)P(C)(C)=O)C5)ncc3F)cc2n1C(C)C,IC50,T47D,29 nM
same,IC50,COLO 205 [1],387 nM
same,IC50,A549,934 nM
same,IC50,MCF7 [2],551 nM
